Measurements from patent US6818670B2, “Active ingredient combination having insecticidal and acaricidal characteristics” (priority 1999, dated 2004).

Key:
Type in all cases: in vivo
[1] = tested on: Heliothis virescens caterpillars; assay: Heliothis virescens test (soya bean shoots, immersion); settings: single active compound, 0.32 ppm
Method: (§1) To produce a suitable active compound preparation, 1 part by weight of active compound is mixed with the stated amounts of solvent and emulsifier, and the concentrate is diluted with emulsifier-containing water to the desired concentration.
Soya bean shoots (Glycine max) are treated by immersion in the active compound preparation of the desired concentration and are populated with Heliothis virescens caterpillars while the leaves are still moist.
(§2) After the desired period, the destruction is determined in %. 100% means that all caterpillars have been killed; 0% means that none of the caterpillars have been killed. The kill figures determined are calculated using Colby's formula.

[2] = tested on: green rice leaf-hoppers (Nephotettix cincticeps); assay: Nephotettix test (rice seedlings, immersion); settings: single active compound, 0.32 ppm
Method: (§3) To produce a suitable preparation of active compound, 1 part by weight of active compound is mixed with the stated amounts of solvent and emulsifier, and the concentrate is diluted with emulsifier-containing water to the desired concentration.
Rice seedlings (Oryza sativa) are treated by immersion in the active compound preparation of the desired concentration and are populated with green rice leaf-hoppers (Nephotettix cincticeps) while the leaves are still moist.
After the desired period, the destruction is determined in %. 100% means that all leafhoppers have been killed; 0% means that none of the leafhoppers have been killed. The kill figures determined form the basis for calculations with Colby's formula.

[3] = tested on: diamond-back moth caterpillars (Plutella xylostella); assay: Plutella test (cabbage leaves, immersion); settings: single active compound, 1.6 ppm
Method: as §1
Cabbage leaves (Brassica oleracea) are treated by immersion in the active compound preparation of the desired concentration and are populated with diamond-back moth caterpillars (Plutella xylostella) while the leaves are still moist.
as §2

[4] = tested on: fall army worm caterpillars (Spodoptera exigua); assay: Spodoptera exigua test (cabbage leaves, immersion); settings: single active compound, 8 ppm
Method: as §3
Cabbage leaves (Brassica oleracea) are treated by immersion in the active compound preparation of the desired concentration and are populated with fall army worm caterpillars (Spodoptera exigua) while the leaves are still moist.
as §2

[5] = tested on: common spider mite (Tetranychus urticae); assay: Tetranychus test (OP-resistant/spray treatment, bean plants); settings: single active compound, 0.32 ppm, OP-resistant, spray treatment
Method: OP-resistant/spray Treatment
as §1
Bean plants (Phaseolus vulgaris) which are severely infested with all stages of the common spider mite (Tetranychus urticae) are sprayed with an active compound preparation of the desired concentration.
After the desired period, the action is determined in %. 100% means that all spider mites have been killed; 0% means that none of the spider mites have been killed. The kill figures determined are calculated using Colby's formula.

SMILES	Percentage destruction after 3 days [1] [%]	Percentage destruction after 6 days [2] [%]	Percentage destruction after 3 days [3] [%]	Percentage destruction after 6 days [4] [%]	Percentage destruction after 14 days [5] [%]
CCC(C)(C)C(=O)OC1=C(c2ccc(Cl)cc2Cl)C(=O)OC12CCCCC2 [Ex. (I-b-1)]	0	0	0	0	0
COP(N)(=O)SC (stereo not shown) [Methamidophos, methamidophos]					0
CC1(C)C(C=C(Cl)Cl)C1C(=O)OC(C#N)c1ccc(F)c(Oc2ccccc2)c1 (stereo not shown) [Betacyfluthrin, betacyfluthrin]	75	50	80	90	
